Laboratory results reported in PubChem BioAssay (NCI).
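Values below derive from 48-hour exposures of cells grown in 96-well plates, with endpoints linearly interpolated between the two concentrations bracketing the appropriate inhibition level. TGI: concentration producing complete growth inhibition.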

Legend:
Assay in all cases: inhibition of tumour cell growth, NCI panel, 48 h
[1] = test system: K-562 leukemia
[2] = test system: LOX IMVI melanoma
[3] = test system: SF-268 CNS
[4] = test system: HOP-62 NSCLC
[5] = test system: KM12 colon
[6] = test system: IGROV1 ovarian
[7] = test system: OVCAR-4 ovarian
[8] = test system: SF-539 CNS
[9] = test system: SK-MEL-2 melanoma
[10] = test system: ACHN renal
[11] = test system: HS 578T breast
[12] = test system: SNB-19 CNS
[13] = test system: COLO 205 colon
[14] = test system: NCI/ADR-RES ovarian
[15] = test system: MCF7 breast
[16] = test system: SN12C renal
[17] = test system: PC-3 prostate
[18] = test system: DU-145 prostate
[19] = test system: CCRF-CEM leukemia
[20] = test system: NCI-H522 lung
[21] = test system: A498 renal
[22] = test system: U251 CNS
[23] = test system: SW-620 colon
[24] = test system: EKVX NSCLC
[25] = test system: A549 NSCLC
[26] = test system: HT29 colon
[27] = test system: MALME-3M melanoma
[28] = test system: SF-295 CNS
[29] = test system: MOLT-4 leukemia
[30] = test system: NCI-H23 lung
[31] = test system: OVCAR-3 ovarian
[32] = test system: CAKI-1 renal
[33] = test system: M14 melanoma
[34] = test system: MDA-MB-435
[35] = test system: SK-MEL-28 melanoma
[36] = test system: TK-10 renal
[37] = test system: NCI-H460 lung
[38] = test system: 786-0 renal
[39] = test system: RPMI-8226 leukemia
[40] = test system: SK-MEL-5 melanoma
[41] = test system: OVCAR-8 ovarian
[42] = test system: UACC-62 melanoma
[43] = test system: HL-60(TB) leukemia
[44] = test system: UO-31 renal
[45] = test system: BT-549 breast
[46] = test system: SR leukemia
[47] = test system: HCC-2998 colon
[48] = test system: HCT-116 colon
[49] = test system: NCI-H226 lung
[50] = test system: MDA-MB-231 breast
[51] = test system: OVCAR-5 ovarian
[52] = test system: UACC-257 melanoma
[53] = test system: HCT-15 colon
[54] = test system: SNB-75 CNS
[55] = test system: SK-OV-3 ovarian
[56] = test system: T-47D breast

In the case of FC(F)(F)c1ccccc1N1CCN(c2nc(-c3cccs3)nc3ccc(Br)cc23)CC1, the TGI [1] is reported as greater than 100 µM, the TGI [2] is reported as greater than 100 µM and the TGI [3] is reported as greater than 100 µM. For the same molecule, the TGI [4] was greater than 100 µM, the TGI [5] was 83.7 µM and the TGI [6] was greater than 100 µM. For the same molecule, the TGI [7] was greater than 100 µM, the TGI [8] was greater than 100 µM and the TGI [9] was 74.1 µM. For the same molecule, the TGI [10] was greater than 100 µM, the TGI [11] was greater than 100 µM and the TGI [12] was greater than 100 µM. For the same molecule, the TGI [13] was 65.1 µM, the TGI [14] was greater than 100 µM and the TGI [15] was 17.5 µM. For the same molecule, the TGI [16] was greater than 100 µM, the TGI [17] was 49.5 µM and the TGI [18] was greater than 100 µM. It also gave a TGI [19] of 39.8 µM, a TGI [20] greater than 100 µM and a TGI [21] greater than 100 µM. It also gave a TGI [22] greater than 100 µM, a TGI [23] greater than 100 µM and a TGI [24] greater than 100 µM. For the same molecule, the TGI [25] was greater than 100 µM, the TGI [26] was greater than 100 µM and the TGI [27] was 55.9 µM. For the same molecule, the TGI [28] was greater than 100 µM, the TGI [29] was greater than 100 µM and the TGI [30] was greater than 100 µM. It also gave a TGI [31] of 76.2 µM, a TGI [32] of 94.5 µM and a TGI [33] greater than 100 µM. It also gave a TGI [34] of 63.3 µM, a TGI [35] greater than 100 µM and a TGI [36] of 97.3 µM. The TGI [37] was greater than 100 µM, the TGI [38] was greater than 100 µM and the TGI [39] was 34.5 µM. For the same molecule, the TGI [40] was 30.9 µM, the TGI [41] was greater than 100 µM and the TGI [42] was 46.3 µM. It also gave a TGI [43] greater than 100 µM, a TGI [44] greater than 100 µM and a TGI [45] greater than 100 µM. For the same molecule, the TGI [46] was greater than 100 µM, the TGI [47] was 25 µM and the TGI [48] was greater than 100 µM. The TGI [49] was greater than 100 µM, the TGI [50] was 74 µM and the TGI [51] was greater than 100 µM. The TGI [52] was greater than 100 µM, the TGI [53] was greater than 100 µM and the TGI [54] was greater than 100 µM. The TGI [55] was greater than 100 µM and the TGI [56] was greater than 100 µM.
